Holding throughout (format): biochemical
Experiment [1] concerns the target T1, VEGF receptor (human flk-1, KDR, VEGFR2) kinase domain (Homo sapiens, UniProt P35968).
T1 construct: VEGF receptor (human flk-1, KDR, VEGFR2) kinase domain; made in house
As to the kind of experiment: Inhibition of VEGF receptor kinase activity (ELISA). The note with it: 40 μM ATP; for IC50: values without % sign; for inhibition at 0.3 µM: 300 nM compound, read-out: VEGFR2 % inh. @ 300 nM. The method, then: Fused pyrrolocarbazole compounds were examined for their inhibitory effects on the kinase activity of baculovirus-expressed VEGF receptor (human flk-1, KDR, VEGFR2) kinase domain using the procedure described for the trkA kinase ELISA assay described below. The kinase reaction mixture, consisting of 50 mM Hepes, pH 7.4, 40 μM ATP, 10 mM MnCl2, 0.1% BSA, 2% DMSO, and various concentrations of inhibitor, was transferred to PLC-γ/GST-coated plates. VEGFR kinase was added and the reaction was allowed to proceed for 15 min. at 37° C. Detection of phosphorylated product was accomplished by addition of anti-phosphotyrosine antibody (UBI). A secondary enzyme-conjugated antibody was delivered to capture the antibody-phosphorylated PLC-γ/GST complex. The activity of the bound enzyme was measured via an amplified detection system (Gibco-BRL). Inhibition data were analyzed using the sigmoidal dose-response (variable slope) equation in GraphPad Prism.
Selected isomeric fused pyrrolocarbazole and isoindolone compounds can be tested for their ability to inhibit the kinase activity of baculovirus-expressed human trkA cytoplasmic domain using an ELISA-based assay as previously described (Angeles et al., Anal. Biochem. 236: 49-55, 1996). Briefly, the 96-well microtiter plate is coated with substrate solution (recombinant human phospholipase C-γl/glutathione S-transferase fusion protein (Rotin et al., EMBO J., 11: 559-567, 1992). Inhibition studies are performed in 100 μl assay mixtures containing 50 mM Hepes, pH 7.4, 40 μM ATP, 10 mM MnCl2, 0.1% BSA, 2% DMSO, and various concentrations of inhibitor. The reaction is initiated by addition of trkA kinase and allowed to proceed for 15 minutes at 37° C. An antibody to phosphotyrosine (UBI) is then added, followed by a secondary enzyme-conjugated antibody, alkaline phosphatase-labelled goat anti-mouse IgG (Bio-Rad). The activity of the bound enzyme is measured via an amplified detection system (Gibco-BRL). Inhibition data are analyzed using the sigmoidal dose-response (variable slope) equation in GraphPad Prism.

The target of experiment [2] is T2, MLK1 (Homo sapiens, UniProt P80192).
T2 construct: 1 μg/ml of baculoviral GST-MLK1KD; GST (N); made in house
The experiment is described as follows: Inhibition of Mixed Lineage Kinase-1 (MLK1) activity. Conditions: 60 μM ATP; for IC50: values without % sign; for inhibition at 0.1 µM: 100 nM compound. The method, then: The kinase activity of MLK1 was assessed using the Millipore Multiscreen TCA “in-plate” format as described for protein kinase C (Pitt & Lee, J. Biomol. Screening, 1: 47-51, 1996). Briefly, each 50-μl assay mixture contained 20 mM Hepes, pH 7.2, 5 mM EGTA, 15 mM MgCl2, 25 mM β-glycerophosphate, 60 μM ATP, 0.25 μCi [γ-^32P]ATP, 0.1% BSA, 500 μ/ml myelin basic protein (UBI #13-104), 2% DMSO, […], and 1 μg/ml of baculoviral GST-MLK1KD. Samples were incubated for 15 min at 37° C. The reaction was stopped by adding ice cold 50% TCA and the proteins were allowed to precipitate for 30 min at 4° C. The plates were then washed with ice cold 25% TCA. Supermix scintillation cocktail was added, and the plates were allowed to equilibrate for 1-2 hours prior to counting using the Wallac MicroBeta 1450 PLUS scintillation counter.

The target in experiment [3] is T3, MLK2 (Homo sapiens, UniProt Q02779).
T3 construct: fused on or other part: GST tag
As to the kind of experiment: Inhibition of Mixed Lineage Kinase-2 (MLK2) activity. The note with it: 100 μM ATP; for IC50: values without % sign; for inhibition at 0.1 µM: 100 nM compound. As for the experimental part: (§1) The kinase activity of MLK1 was assessed using the Millipore Multiscreen TCA “in-plate” format as described for protein kinase C (Pitt & Lee, J. Biomol. Screening, 1: 47-51, 1996). Briefly, each 50-μl assay mixture contained 20 mM Hepes, pH 7.2, 5 mM EGTA, 15 mM MgCl2, 25 mM β-glycerophosphate, 60 μM ATP, 0.25 μCi [γ-^32P]ATP, 0.1% BSA, 500 μ/ml myelin basic protein (UBI #13-104), 2% DMSO, 1 μM of test compound, and 1 μg/ml of baculoviral GST-MLK1KD. Samples were incubated for 15 min at 37° C. The reaction was stopped by adding ice cold 50% TCA and the proteins were allowed to precipitate for 30 min at 4° C. The plates were then washed with ice cold 25% TCA. Supermix scintillation cocktail was added, and the plates were allowed to equilibrate for 1-2 hours prior to counting using the Wallac MicroBeta 1450 PLUS scintillation counter.
(§2) Assays were performed using the Millipore Multiscreen plate format as described for MLK1. Each 50-μl assay mixture contained 20 mM Hepes, pH 7.2, 5 mM EGTA, 15 mM MgCl2, 25 mM β-glycerophosphate, 100 μM ATP, 0.25 μCi [γ-^32P]ATP, 0.1% BSA, 500 μg/ml myelin basic protein (UBI #13-104), 2% DMSO, various concentrations of test compound, and 3 μg/ml of baculoviral GST-MLK2KDLZ. Samples were incubated for 15 min. at 37° C. The reaction was stopped by adding ice cold 50% TCA and the proteins were allowed to precipitate for 30 min at 4° C. The plates were then washed with ice cold 25% TCA. Supermix scintillation cocktail was added, and the plates were allowed to equilibrate for 1-2 hours prior to counting.

Experiment [4] addresses T4, MLK3 (Homo sapiens, UniProt Q16584).
T4 construct: 2 μg/ml of baculoviral GST-MLK3KD; GST (N); made in house
The experiment is described as follows: Inhibition of Mixed Lineage Kinase-3 (MLK3) activity. Conditions: 100 μM ATP; for IC50: values without % sign. The method, then:
as §1
as §2, with “MLK1. Briefly, each” for “MLK1. Each”, “and 2” for “and 3”, “baculoviral GST-MLK3KD. Sample” for “baculoviral GST-MLK2KDLZ. Samples”, “15 min” for “15 min.”

SMILES strings stand for the structures.

T1 sequence (P35968 834-1162 limits assumed): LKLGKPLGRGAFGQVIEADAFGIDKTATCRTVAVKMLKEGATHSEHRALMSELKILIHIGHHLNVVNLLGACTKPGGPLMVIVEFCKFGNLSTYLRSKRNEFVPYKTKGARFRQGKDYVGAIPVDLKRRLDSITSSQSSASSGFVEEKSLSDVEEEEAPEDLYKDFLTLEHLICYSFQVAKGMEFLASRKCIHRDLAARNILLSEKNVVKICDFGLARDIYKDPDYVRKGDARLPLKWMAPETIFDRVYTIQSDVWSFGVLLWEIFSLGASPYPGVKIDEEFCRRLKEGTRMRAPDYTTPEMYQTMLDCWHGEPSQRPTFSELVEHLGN
T4 sequence (Q16584 117-379 limits assumed, species assumed): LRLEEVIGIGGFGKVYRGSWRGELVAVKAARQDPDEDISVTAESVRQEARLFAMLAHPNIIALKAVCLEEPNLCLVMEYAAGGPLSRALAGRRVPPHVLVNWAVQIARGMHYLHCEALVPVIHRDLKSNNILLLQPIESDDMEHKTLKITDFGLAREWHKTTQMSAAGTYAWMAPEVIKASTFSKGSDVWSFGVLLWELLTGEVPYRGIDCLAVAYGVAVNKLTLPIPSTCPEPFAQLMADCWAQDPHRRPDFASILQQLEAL
T2 sequence (P80192 144-412 limits assumed, species assumed): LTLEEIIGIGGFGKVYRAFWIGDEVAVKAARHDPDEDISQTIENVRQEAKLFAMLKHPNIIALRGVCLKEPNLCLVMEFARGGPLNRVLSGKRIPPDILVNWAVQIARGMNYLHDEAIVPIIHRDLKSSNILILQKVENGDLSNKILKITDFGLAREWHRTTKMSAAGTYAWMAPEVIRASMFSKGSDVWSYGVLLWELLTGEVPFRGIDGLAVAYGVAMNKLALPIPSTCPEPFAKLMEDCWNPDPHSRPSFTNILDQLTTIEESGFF
T3 sequence (Q02779 98-440 limits assumed): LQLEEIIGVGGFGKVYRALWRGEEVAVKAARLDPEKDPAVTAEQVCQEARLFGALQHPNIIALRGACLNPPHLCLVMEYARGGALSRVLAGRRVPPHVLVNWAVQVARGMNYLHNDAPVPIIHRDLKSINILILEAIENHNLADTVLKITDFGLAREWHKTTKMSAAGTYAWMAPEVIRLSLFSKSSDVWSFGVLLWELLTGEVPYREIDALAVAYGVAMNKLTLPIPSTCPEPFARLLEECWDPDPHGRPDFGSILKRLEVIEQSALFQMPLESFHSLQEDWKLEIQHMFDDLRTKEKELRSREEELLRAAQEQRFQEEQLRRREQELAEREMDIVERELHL

With `CC(C)OCc1ccc2c(c1)c1c3c(c4c(c1n2CCCOC(=O)CN(C)C)Cc1ccccc1-4)C(=O)NC3` [Compound 22], the IC50 (commonly the concentration that inhibits the measured activity by half) turned out to be 18 nM in experiment [1], 74 nM in experiment [2], 170 nM in experiment [3] and 28 nM in experiment [4].
On to `CC[C@H](C)OCc1ccc2c(c1)c1c3c(c4c(c1n2CCCO)Cc1ccccc1-4)C(=O)NC3` [Compound 6], for which the 50% inhibitory concentration (IC50) in experiment [1] is 19 nM; in experiment [2], 38 nM; in experiment [4] it was 19 nM. The molecule also displayed an inhibition at 0.1 µM in experiment [3] of 51%.
`CC(C)CC(N)C(=O)OCCCn1c2ccccc2c2c3c(c4c(c21)Cc1ccccc1-4)C(=O)NC3` (centres unmarked) [C, reference compound]: the inhibition at 0.3 µM in experiment [1] was 17%. Also, the inhibition at 0.1 µM in experiment [2] was 8%; in experiment [3], 0%; in experiment [4] (100 nM compound), 30%.
On to `O=C1NCc2c1c1c(c3c2c2ccccc2n3CCO)Cc2ccccc2-1` [A, reference compound], for which the figures for the IC50 in experiment [1], in experiment [2] and in experiment [4] were 107 nM, 22 nM and 8 nM, respectively. This molecule showed an inhibition at 0.1 µM in experiment [3] of 39%.
For the molecule `CC(C)OCc1ccc2c(c1)c1c3c(c4c(c1n2CCCO)C(CO)c1ccccc1-4)C(=O)NC3` (centres unmarked) [Compound 40], the IC50 in experiment [1] is 16 nM; in experiment [2], 21 nM; in experiment [3], 86 nM.
As to `O=C1NCc2c1c1c(c3c2c2cc(CO)ccc2n3CCCO)Cc2ccccc2-1` [Compound 29], the concentration for half-maximal inhibition (IC50) in experiment [1] was determined as 208 nM; in experiment [2], 9 nM; in experiment [4], 5 nM. Moreover, the inhibition at 0.1 µM in experiment [3] is 64%.
Regarding `CC(C)(C)OCc1ccc2c(c1)c1c3c(c4c(c1n2CCCO)Cc1ccccc1-4)C(=O)NC3` [Compound 17], the IC50 in experiment [1] came to 11 nM; in experiment [2], 35 nM. Further, the inhibition at 0.1 µM in experiment [3] amounted to 50%.
As to `CC(C)OCc1ccc2c(c1)c1c3c(c4c(c1n2CCCOC(=O)C(N)CCCCN)Cc1ccccc1-4)C(=O)NC3` (centres unmarked) [Compound 19], in experiment [1], the inhibition at 0.3 µM was determined as 60%. Also, the figures for the inhibition at 0.1 µM in experiment [2] and in experiment [3] were 44% and 28%, respectively.
With `COC(C)c1ccc2c(c1)c1c3c(c4c(c1n2CCCO)Cc1ccccc1-4)C(=O)NC3` (centres unmarked) [Compound 13], the figures for the concentration for half-maximal inhibition (IC50) in experiment [1], in experiment [2] and in experiment [4] were 73 nM, 20 nM and 26 nM, respectively. The inhibition at 0.1 µM in experiment [3] came out at 62%.
In the same order, the values of `CCCOCc1ccc2c(c1)c1c3c(c4c(c1n2CCCO)Cc1ccccc1-4)C(=O)NC3` [Compound 8] are 13 nM, 19 nM, 13 nM and 76%.
On to `O=C1NCc2c1c1c(c3c2c2ccccc2n3CCCO)Cc2ccccc2-1` [Compound B, reference compound], for which the figures for the concentration for half-maximal inhibition (IC50) in experiment [1], in experiment [2] and in experiment [4] were 48 nM, 31 nM and 17 nM, respectively. In experiment [3], this molecule showed an inhibition at 0.1 µM of 46%.
For `CCOC(C)c1ccc2c(c1)c1c3c(c4c(c1n2CCCO)Cc1ccccc1-4)C(=O)NC3` (single isomer, unassigned) [Compound 12], the IC50 in experiment [1] came to 240 nM; in experiment [2], 28 nM; in experiment [3], 131 nM; in experiment [4], 16 nM.
Regarding `CC[C@@H](C)OCc1ccc2c(c1)c1c3c(c4c(c1n2CCCO)Cc1ccccc1-4)C(=O)NC3` [Compound 5], the results for the IC50 in experiment [1], in experiment [2] and in experiment [4] were 12 nM, 27 nM and 16 nM, respectively. In addition, the inhibition at 0.1 µM in experiment [3] worked out at 45%.
For `CC(C)OCc1ccc2c(c1)c1c3c(c4c(c1n2CCCOC(=O)CCN)Cc1ccccc1-4)C(=O)NC3` [Compound 20], the IC50 turned out to be 31 nM in experiment [1], 42 nM in experiment [2], 229 nM in experiment [3] and 32 nM in experiment [4].

These data come from US6630500B2, “Selected fused pyrrolocarbazoles” (Cephalon, Inc., priority 2000, dated 2003).
